Laboratory results as given in ChEMBL document CHEMBL5696441 (Nat Chem Biol, 2011).
Active and inactive are the calls of the source. No cut-off for these calls is given here.

System: THP-1
Experiment: Inhibition of ERK in human THP-1 cells assessed as CREB phosphorylation at Ser133 level at 4 uM preincubated for 30 mins in the presence of PMA stimulation for 1 hrs by western blot analysis
Format: cell-based

In the case of `C[S+]([O-])c1ccc(-c2nc(-c3ccc(F)cc3)c(-c3ccncc3)[nH]2)cc1` (stereo unspecified), the inhibition is reported as “Active”.
